Data on five compounds can be found in patent publication US9051595B2, “Malt1 specific cleavage in assay and screening method” (University of Lausanne, priority 2007, dated 2015).

“Also recorded” adds a separate entry of the source. Peptide text beside a SMILES is read from it. * marks the point of attachment. Cbz = O=C(OCc1ccccc1)*; CH2F = FC*

Common to all, as to type: cell-based, human
In one assay the test system is P-IκB. Nature of the assay: Western blot for P-IκB in PMA/ionomycin-stimulated Jurkat cells. To be noted: Jurkat cells pretreated with inhibitor, PMA and ionomycin; FIG. 5b. As to the method: (§1) For testing if the observed proteolytic activity is an indirect effect of Malt1 on other proteases, Jurkat cells were pretreated with the lysosomal or proteasomal inhibitors (NH4^+/leupeptin or MG132) or solvent control before stimulation with PMA and ionomycin, and postnuclear lysates were analyzed by Western blot as indicated.

For assay [1], the system named is Bcl10. Description: Western blot for the faster migrating Bcl10 species (Bcl10 cleavage) in stimulated Jurkat cells pre-treated with inhibitors. As to conditions: for generation of the faster migrating Bcl10 species: Jurkat cells pre-incubated 30 min with inhibitor, stimulated with CD3/CD28, FIG. 2a; for anti-CD3/CD28-induced reduction in the apparent molecular weight of Bcl10: stimulated with anti-CD3 and anti-CD28, FIG. 5c. As for the experimental part:
For short term stimulations, cells were re-suspended at a density of 5×10^7 cells/mi in RPMI with 0.5% serum and pre-warmed for 10 min at 37° C. before addition of the stimulating agent.
T-cell stimulation was initiated by addition of PMA (10 ng/ml, Alexis) and ionomycin (1 μM, Calbiochem) (P/I) or a combination of anti-human CD3ε (10 μg/ml of OKT3, Apotech) and anti-CD28 (10 μg/ml of CD28.2, Immunotech) antibodies (CD3/CD28), immediately followed by addition of 5 μg/ml of cross-linking goat anti-mouse antibody (Southern Biotech).
Stimulations were stopped by addition of ice-cold Tris-NaCl buffer (20 mM Tris-HCl pH 7.4, 150 mM NaCl), and pelleted cells were lysed in Tris-NaCl lysis buffer containing 1% NP40, proteinase inhibitors (Complete, Roche) and phosphatase inhibitors (cocktails I and II, Sigma).
Postnuclear cell lysates were boiled with reducing SDS-sample buffer and analyzed on 16×20 cm gels by 15% SDS-PAGE according to Anderson, N. L. & Anderson, N. G. Analytical techniques for cell fractions. XXII. Two-dimensional analysis of serum and tissue proteins: multiple gradient-slab gel electrophoresis. Anal Biochem 85, 341-54 (1978).
Primary antibodies used are monoclonal mouse anti-phospho ERK (Sigma), rabbit anti-phospho-IκBα (5A5, Cell Signalling), rabbit anti-IκBα (Sigma), and rabbit anti-Bcl10 (H-197, Santa Cruz).
In a first approach, Jurkat cells were pre-incubated with either the pan-PKC inhibitor bisindolyl-maleimide VIII (BIM) or with Gö6976, an inhibitor of classical (Ca2+- and DAG-dependent) PKC isoforms, before stimulation with CD3/CD28 as indicated in Example 1. For pre-incubation, the cells were incubated with […] Gö6976 (Calbiochem) or 500 nM Bisindoleylmaleimide VIII acetate (Alexis), or solvent control for 30 min at 37° in RPMI with 0.5% serum directly prior to stimulation.
Cell lysis and western blots was done as in Example 1. The primary antibody for the experiment with VSV-tagged wt or VSV-tagged Carma1-DN and Carma1-coiled-coil construct is monoclonal mouse anti-VSV (P5D4, Sigma). For Carma1, a rabbit anti-Carma1 (AL220, Alexis) antibody was used.
as §1
(§2) In an analogue experiment, Jurkat cells were pretreated with the pan-caspase inhibitor zVAD-ink or solvent control, and stimulated with anti-CD3 and anti-CD28 antibodies or hexameric recombinant FasL for the indicated times. Postnuclear lysates were analyzed by Western blot with the indicated primary antibodies (FIG. 5c). A non-specific band (n.s.) of the anti-Bcl10 blot served as a loading control.

Assay [2] has as its system Bcl10. Description: Activation-induced cleavage of Bcl10 in living Jurkat T cells and CTLs (Western blot). As to conditions: Jurkat T cells or CTLs pre-incubated 1 h with inhibitor, PMA and ionomycin; FIGS. 11b, c.
The next assay concerns IL-2. Nature of the assay: IL-2 production of Jurkat cells stimulated with Raji cells and superantigen SEE. To be noted: FIG. 11e. As for the experimental part:
To test the efficiency of inhibitors, Jurkat T cells stimulated or not with PMA and ionomycin for 20 min are mechanically lysed in cleavage assay buffer (see example 4) in the absence or presence of increasing concentrations of a irreversble cell permeable inhibitor peptide (z-VRPR-fink). This inhibitor was designed based on an optimal substrate cleavage sequence reported for the plant metacaspase AtMC9 (see ref. by Vercammen et al. 2006, J. Mol. Biol., 364(4):625-36). Malt1 protease activity is determined as described in example 4. […] Moreover, experiments are performed to assess the effect of the inhibitor on anti-CD3/CD28-induced NF-κB activation in Jurkat T cells, on IL-2 production of Jurkat cells stimulated by incubation with antigen-presenting cells (Raji cells in combination with the superantigen SEE) and on stimulation-induced adhesion to fibronectin (see example 7)).

The next assay relates to NF-κB. Description: anti-CD3/CD28-induced NF-κB activation in Jurkat T cells. As to conditions: FIG. 11d.
The next assay deals with Jurkat T cells. Nature of the assay: Stimulation-induced adhesion of Jurkat T cells to fibronectin. To be noted: FIG. 11f. As for the experimental part: Central areas of tissue culture dishes (35-mm×10-mm) were coated for 90 min at 25° C. with 50 μl of fibronectin solution (40 μg/ml; Roche). Coated dishes were washed three times with PBS (without Ca2+ and Mg2+) and were blocked for 2 h with 1% (wt/vol) BSA in PBS. Cells were washed with Hank's balanced-salt solution (Gibco) and were left unstimulated or were stimulated at 37° C. for 30 min with MnCl2 (1 mM) or PMA (100 ng/ml), or for 5 min with anti-human CD3 and anti-CD28 (see example 1). Subsequently, cell suspensions were added to fibronectin-coated tissue culture dishes followed by incubation for additional 30 min at 37° C. Non-adherent cells were removed by washing of the dishes three to five times with Hank's balanced-salt solution. Adherent cells were counted in six separate fields with a microscope with an ocular counting reticule.
To test the efficiency of inhibitors, Jurkat T cells stimulated or not with PMA and ionomycin for 20 min are mechanically lysed in cleavage assay buffer (see example 4) in the absence or presence of increasing concentrations of a irreversble cell permeable inhibitor peptide (z-VRPR-fink). This inhibitor was designed based on an optimal substrate cleavage sequence reported for the plant metacaspase AtMC9 (see ref. by Vercammen et al. 2006, J. Mol. Biol., 364(4):625-36). Malt1 protease activity is determined as described in example 4. […]

The next assay has as its system caspase-8. Description: FasL-induced caspase-8 activation in Jurkat cells (Western blot). As to conditions: Jurkat cells pretreated with inhibitor, hexameric recombinant FasL; FIG. 5c. As to the method:
as §2

In the case of `CC(C)C[C@@H](C=O)NC(=O)[C@H](CC(C)C)NC(=O)[C@H](CC(C)C)NC(=O)OCc1ccccc1` [MG132] (Cbz-Leu-Leu-Leu-aldehyde), the “stabilization of P-I[…]B” value in the assay on P-IκB is on record as “efficiently stabilized”. Moreover, the “generation of the faster migrating Bcl10 species corresponding to Bcl10 cleavage” value in the assay on Bcl10 [1] (Jurkat cells pretreated with inhibitor, stimulated with PMA and ionomycin, FIG. 5a, 5b) was “did not affect; also recorded: lack of an effect”.
Consider `Cn1c2ccccc2c2c3c(c4c5ccccc5n(CCC#N)c4c21)CNC3=O` [Gö6976], for which the “generation of the faster migrating Bcl10 species” value in the assay on Bcl10 [1] is reported as “not Gö6976 prevented”.
As to z-VRPR-fmk (Cbz-VRPR-CH2F), the “activation-induced cleavage of Bcl10” value with Bcl10 [2] is given as “reduction”. Further, in the assay with IL-2, the “capacity of T cells to produce IL-2” value is on record as “impairs”. Also, the “capacity of T cells to activate NF-κB” value in the assay with NF-κB is reported as “impairs”. Also, in the assay on Jurkat T cells, the “capacity of T cells to adhere to fibronectin upon T-cell activation” value is listed as “impairs”.
Regarding `Cn1cc(C2=C(c3cn(CCCN)c4ccccc34)C(=O)NC2=O)c2ccccc21` [BIM, bisindolyl-maleimide VIII], the “generation of the faster migrating Bcl10 species” value in the assay with Bcl10 [1] was “prevented”.
As for `COC(=O)C[C@H](NC(=O)[C@H](C)NC(=O)[C@@H](NC(=O)OCc1ccccc1)C(C)C)C(=O)CF` [zVAD-fmk] (Cbz-Val-Ala-Asp(OMe)-CH2F), the “FasL-induced caspase-8 activation” value in the assay on caspase-8 was “potently inhibited”. Moreover, the “anti-CD3/CD28-induced reduction in the apparent molecular weight of Bcl10” value with Bcl10 [1] (Jurkat cells pretreated with inhibitor) is given as “no effect”; in the assay on Bcl10 [1] (Jurkat cells pretreated with inhibitor, listed as Z-VAD-fmk) it was “lack of an effect”.
